Measured values published in the NIST ThermoML archive (doi:10.1016/j.fluid.2018.09.026).
Several values for one entry are separate records, joined by “and”; a condition that tells them apart may be missing. Identical values can stand only once.

Settings: Liquid; for mass density: Vibrating tube method; for viscosity: Vibrating wire viscometry

OCCOCCO [diethylene glycol]
Settings | mass density | viscosity
323.15 K, 19770 kPa | 1103.6 kg/m3 | –
323.15 K, 24680 kPa | 1105.8 kg/m3 | –
323.15 K, 29600 kPa | 1108 kg/m3 | –
323.15 K, 34530 kPa | 1110.1 kg/m3 | –
323.15 K, 39360 kPa | 1112.2 kg/m3 | –
323.15 K, 44290 kPa | 1114.3 kg/m3 | –
323.15 K, 49260 kPa | 1116.3 kg/m3 | –
323.15 K, 54100 kPa | 1118.2 kg/m3 | –
323.15 K, 59060 kPa | 1120.2 kg/m3 | –
323.15 K, 63880 kPa | 1122 kg/m3 | –
323.15 K, 68770 kPa | 1123.8 kg/m3 | –
333.15 K, 100 kPa | 1087 kg/m3 | –
333.15 K, 660 kPa | 1087.3 kg/m3 | –
333.15 K, 1120 kPa | 1087.5 kg/m3 | –
333.15 K, 1630 kPa | 1087.8 kg/m3 | –
333.15 K, 2100 kPa | 1088 kg/m3 | –
333.15 K, 3070 kPa | 1088.5 kg/m3 | –
333.15 K, 5060 kPa | 1089.5 kg/m3 | –
333.15 K, 7050 kPa | 1090.5 kg/m3 | –
333.15 K, 9930 kPa | 1091.9 kg/m3 | –
333.15 K, 14780 kPa | 1094.3 kg/m3 | –
333.15 K, 19770 kPa | 1096.7 kg/m3 | –
333.15 K, 24660 kPa | 1099 kg/m3 | –
333.15 K, 29540 kPa | 1101.2 kg/m3 | –
333.15 K, 34500 kPa | 1103.4 kg/m3 | –
333.15 K, 39330 kPa | 1105.5 kg/m3 | –
333.15 K, 44230 kPa | 1107.6 kg/m3 | –
333.15 K, 49130 kPa | 1109.7 kg/m3 | –
333.15 K, 54060 kPa | 1111.7 kg/m3 | –
333.15 K, 59020 kPa | 1113.7 kg/m3 | –
333.15 K, 63840 kPa | 1115.7 kg/m3 | –
333.15 K, 68830 kPa | 1117.5 kg/m3 | –
333.28 K, 210 kPa | – | 7.305 mPa·s [middle of 6 runs]
333.28 K, 1080 kPa | – | 7.347 mPa·s and 7.376 mPa·s and 7.374 mPa·s
333.28 K, 2290 kPa | – | 7.397 mPa·s [middle of 6 runs]
333.28 K, 5100 kPa | – | 7.491 mPa·s
333.28 K, 5110 kPa | – | 7.506 mPa·s and 7.492 mPa·s
333.28 K, 5120 kPa | – | 7.53 mPa·s and 7.547 mPa·s
333.28 K, 10340 kPa | – | 7.758 mPa·s and 7.739 mPa·s
333.28 K, 10360 kPa | – | 7.749 mPa·s and 7.734 mPa·s
333.28 K, 19960 kPa | – | 8.178 mPa·s [middle of 5 runs]
333.28 K, 30150 kPa | – | 8.721 mPa·s and 8.673 mPa·s
333.28 K, 30160 kPa | – | 8.678 mPa·s and 8.671 mPa·s
333.28 K, 40000 kPa | – | 9.197 mPa·s
333.28 K, 40010 kPa | – | 9.192 mPa·s and 9.199 mPa·s and 9.178 mPa·s
333.28 K, 50250 kPa | – | 9.728 mPa·s and 9.806 mPa·s
333.28 K, 50260 kPa | – | 9.736 mPa·s
333.28 K, 68880 kPa | – | 10.71 mPa·s
333.28 K, 69100 kPa | – | 10.77 mPa·s
333.28 K, 69180 kPa | – | 10.8 mPa·s
342.75 K, 250 kPa | – | 5.567 mPa·s and 5.585 mPa·s and 5.609 mPa·s
342.75 K, 260 kPa | – | 5.588 mPa·s and 5.573 mPa·s
342.75 K, 1040 kPa | – | 5.634 mPa·s [middle of 5 runs]
342.75 K, 2130 kPa | – | 5.655 mPa·s [middle of 5 runs]
342.75 K, 5010 kPa | – | 5.77 mPa·s
342.75 K, 5020 kPa | – | 5.764 mPa·s and 5.765 mPa·s
342.75 K, 9990 kPa | – | 5.9 mPa·s and 5.894 mPa·s and 5.912 mPa·s
342.75 K, 10000 kPa | – | 5.925 mPa·s
342.75 K, 20270 kPa | – | 6.257 mPa·s and 6.245 mPa·s
342.75 K, 20280 kPa | – | 6.256 mPa·s and 6.268 mPa·s
342.75 K, 30150 kPa | – | 6.641 mPa·s [middle of 6 runs]
342.75 K, 39690 kPa | – | 6.989 mPa·s
342.75 K, 39700 kPa | – | 6.991 mPa·s
342.75 K, 39710 kPa | – | 6.946 mPa·s and 6.939 mPa·s and 6.957 mPa·s
342.75 K, 50090 kPa | – | 7.319 mPa·s [middle of 6 runs]
342.75 K, 70440 kPa | – | 8.133 mPa·s
342.75 K, 70450 kPa | – | 8.148 mPa·s
342.75 K, 70460 kPa | – | 8.145 mPa·s
342.75 K, 70480 kPa | – | 8.152 mPa·s
342.75 K, 70500 kPa | – | 8.131 mPa·s
342.75 K, 70510 kPa | – | 8.177 mPa·s
343.15 K, 100 kPa | 1079.7 kg/m3 | –
343.15 K, 670 kPa | 1080 kg/m3 | –
343.15 K, 1100 kPa | 1080.2 kg/m3 | –
343.15 K, 1520 kPa | 1080.4 kg/m3 | –
343.15 K, 2120 kPa | 1080.7 kg/m3 | –
343.15 K, 3060 kPa | 1081.2 kg/m3 | –
343.15 K, 5040 kPa | 1082.3 kg/m3 | –
343.15 K, 6970 kPa | 1083.3 kg/m3 | –
343.15 K, 9950 kPa | 1084.8 kg/m3 | –
343.15 K, 14870 kPa | 1087.3 kg/m3 | –
343.15 K, 19740 kPa | 1089.6 kg/m3 | –
343.15 K, 24710 kPa | 1092.1 kg/m3 | –
343.15 K, 29560 kPa | 1094.4 kg/m3 | –
343.15 K, 34490 kPa | 1096.6 kg/m3 | –
343.15 K, 39350 kPa | 1098.8 kg/m3 | –
343.15 K, 44290 kPa | 1101 kg/m3 | –
343.15 K, 49180 kPa | 1103.1 kg/m3 | –
343.15 K, 54070 kPa | 1105.2 kg/m3 | –
343.15 K, 58980 kPa | 1107.3 kg/m3 | –
343.15 K, 63910 kPa | 1109.3 kg/m3 | –
343.15 K, 68720 kPa | 1111.2 kg/m3 | –
353.15 K, 100 kPa | 1072.2 kg/m3 | –
353.15 K, 560 kPa | 1072.5 kg/m3 | –
353.15 K, 1090 kPa | 1072.8 kg/m3 | –
353.15 K, 1550 kPa | 1073 kg/m3 | –
353.15 K, 2080 kPa | 1073.3 kg/m3 | –
353.15 K, 3040 kPa | 1073.8 kg/m3 | –
353.15 K, 5060 kPa | 1074.9 kg/m3 | –
353.15 K, 7020 kPa | 1076 kg/m3 | –
353.15 K, 9970 kPa | 1077.5 kg/m3 | –
353.15 K, 14830 kPa | 1080.1 kg/m3 | –
353.15 K, 19740 kPa | 1082.6 kg/m3 | –
353.15 K, 24680 kPa | 1085.1 kg/m3 | –
353.15 K, 29560 kPa | 1087.5 kg/m3 | –
353.15 K, 34550 kPa | 1089.8 kg/m3 | –
353.15 K, 39420 kPa | 1092.1 kg/m3 | –
353.15 K, 44280 kPa | 1094.3 kg/m3 | –
353.15 K, 49230 kPa | 1096.5 kg/m3 | –
353.15 K, 54110 kPa | 1098.7 kg/m3 | –
353.15 K, 59020 kPa | 1100.8 kg/m3 | –
353.15 K, 64010 kPa | 1102.9 kg/m3 | –
353.15 K, 68770 kPa | 1104.8 kg/m3 | –
362.81 K, 230 kPa | – | 3.458 mPa·s [middle of 4 runs]
362.81 K, 240 kPa | – | 3.444 mPa·s
362.81 K, 1070 kPa | – | 3.462 mPa·s and 3.469 mPa·s
362.81 K, 2190 kPa | – | 3.473 mPa·s and 3.514 mPa·s and 3.458 mPa·s
362.81 K, 5080 kPa | – | 3.546 mPa·s [middle of 5 runs]
362.81 K, 9970 kPa | – | 3.652 mPa·s [middle of 4 runs]
362.81 K, 20040 kPa | – | 3.834 mPa·s
362.81 K, 20050 kPa | – | 3.862 mPa·s and 3.82 mPa·s and 3.837 mPa·s
362.81 K, 30200 kPa | – | 4.039 mPa·s
362.81 K, 30210 kPa | – | 4.007 mPa·s
362.81 K, 40240 kPa | – | 4.264 mPa·s and 4.237 mPa·s
362.81 K, 40250 kPa | – | 4.205 mPa·s and 4.242 mPa·s
362.81 K, 50100 kPa | – | 4.435 mPa·s
362.81 K, 50110 kPa | – | 4.47 mPa·s and 4.453 mPa·s
362.81 K, 69940 kPa | – | 4.921 mPa·s
362.81 K, 69950 kPa | – | 4.913 mPa·s
362.81 K, 70000 kPa | – | 4.894 mPa·s
362.81 K, 70020 kPa | – | 4.924 mPa·s
363.08 K, 100 kPa | 1064.5 kg/m3 and 1064.4 kg/m3 | –
363.08 K, 620 kPa | 1064.7 kg/m3 | –
363.08 K, 1110 kPa | 1065 kg/m3 | –
363.08 K, 1570 kPa | 1065.2 kg/m3 | –
363.08 K, 2100 kPa | 1065.5 kg/m3 | –
363.08 K, 3020 kPa | 1066 kg/m3 | –
363.08 K, 5070 kPa | 1067.2 kg/m3 | –
363.08 K, 7000 kPa | 1068.3 kg/m3 | –
363.08 K, 9970 kPa | 1069.9 kg/m3 | –
363.08 K, 14840 kPa | 1072.6 kg/m3 | –
363.08 K, 19750 kPa | 1075.1 kg/m3 | –
363.08 K, 24660 kPa | 1077.7 kg/m3 | –
363.08 K, 29610 kPa | 1080.2 kg/m3 | –
363.08 K, 34480 kPa | 1082.6 kg/m3 | –
363.08 K, 39400 kPa | 1084.9 kg/m3 | –
363.08 K, 44290 kPa | 1087.2 kg/m3 | –
363.08 K, 49160 kPa | 1089.5 kg/m3 | –
363.08 K, 54110 kPa | 1091.7 kg/m3 | –
363.08 K, 58990 kPa | 1093.9 kg/m3 | –
363.08 K, 63880 kPa | 1096 kg/m3 | –
363.08 K, 68760 kPa | 1098 kg/m3 | –
